From ChEMBL document CHEMBL1201862, “PubChem BioAssay data set” (2004) come the findings set out here.

SMILES strings stand for the structures.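 Compound exposure: 48 hours, 5 concentrations, 96-well plates. GI50 = concentration required for 50% inhibition of growth.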 The source made the active and inactive calls. No stated cut-off is given here; in the data, active = GI50 up to about 1.1 µM and inactive = higher.

Some test systems named below: NCI/ADR-RES; HOP-62; EKVX; RPMI-8226; Malme-3M; SK-MEL-5; SF-539; CCRF-CEM; SNB-75; SK-OV-3; HL-60; OVCAR-5; SN12C; OVCAR-4; MDA-MB-435; IGROV-1; HCT-15; U-251; NCI-H460.
Test in all cases: NCI-60 cell line screen, 48 h

On to `CCCCCCCCCCCCCCCCNc1nc(=O)n(C2CC(O)C(COP(=O)(O)OC3CC(n4cc(F)c(=O)[nH]c4=O)OC3CO)O2)cc1F` (stereo unspecified), for which the GI50 with NCI/ADR-RES was 0.634 µM (active); in the assay with HOP-62, < 0.0296 µM (active); in the assay with EKVX, 26.4 µM (inactive); in the assay with RPMI-8226 it was 0.0822 µM (active); in the assay with Malme-3M it was 12.1 µM (inactive); in the assay on SK-MEL-5, 0.571 µM (active). The GI50 with SF-539 is < 0.0108 µM (active); with CCRF-CEM, < 0.0122 µM (active); in the assay with SNB-75, 4.98 µM (inactive); in the assay with SK-OV-3, 11.6 µM (inactive); in the assay with HL-60, 0.328 µM (active); in the assay on OVCAR-5 it was 29.7 µM (inactive). The GI50 in the assay on SN12C is 0.264 µM (active); with OVCAR-4, 92.3 µM (inactive); in the assay with MDA-MB-435, 13.1 µM (inactive); in the assay on IGROV-1, 1.95 µM (inactive); in the assay on HCT-15, 3.18 µM; with U-251 it was 1.66 µM (inactive).
Turning to `CC(C)(C)OC(=O)N1N=CCC1c1ccccc1` (stereo unspecified), the GI50 in the assay on NCI/ADR-RES, in the assay with NCI-H460, in the assay on HOP-62, with EKVX, in the assay on RPMI-8226 and in the assay on SK-MEL-5 was > 100 µM (inactive) in each case. In addition, the GI50 in the assay on SF-539 was > 100 µM (inactive); with CCRF-CEM it was 56.2 µM (inactive); in the assay with SNB-75 it was > 100 µM (inactive); in the assay on SK-OV-3, > 100 µM (inactive); in the assay on HL-60, > 100 µM (inactive); with OVCAR-5, > 100 µM (inactive). In addition, the GI50 is > 100 µM (inactive) in the assay on SN12C, > 100 µM (inactive) in the assay with MDA-MB-435, > 100 µM (inactive) in the assay on IGROV-1 and more than 100 µM in the assay with HCT-15.
For `C=C1CCCCCCCCC/C=C/1SCCCSC`, the GI50 in the assay on NCI/ADR-RES, with NCI-H460, with HOP-62, with EKVX, with RPMI-8226 and in the assay with Malme-3M was > 100 µM (inactive) each time. In addition, the GI50 in the assay on SK-MEL-5, with SF-539, in the assay on SK-OV-3, with HL-60, with OVCAR-5 and with SN12C was > 100 µM (inactive) throughout. For the same compound, the GI50 is > 100 µM (inactive) in the assay with OVCAR-4; > 100 µM (inactive) in the assay on MDA-MB-435; > 100 µM (inactive) in the assay with IGROV-1; more than 100 µM with HCT-15; > 100 µM (inactive) with U-251.
In the case of `C/C(=N\OCC(O)CNCCSCc1ccccc1)c1ccccc1Cl` (stereo unspecified), the GI50 in the assay with NCI/ADR-RES was 19.1 µM (inactive); with NCI-H460, 21.6 µM (inactive); with HOP-62, 19.4 µM (inactive); with EKVX, 20 µM (inactive); in the assay on RPMI-8226, 21.8 µM (inactive); with Malme-3M it was 19.8 µM (inactive). The GI50 in the assay on SK-MEL-5 is 17.1 µM (inactive); in the assay on SF-539 it was 19.5 µM (inactive); with CCRF-CEM it was 28.6 µM (inactive); with SNB-75 it was 21.4 µM (inactive); in the assay with SK-OV-3, 19.2 µM (inactive); with HL-60, 24 µM (inactive). Further, the GI50 with OVCAR-5 is 19.3 µM (inactive); with SN12C, 18.6 µM (inactive); with MDA-MB-435 it was 17.4 µM (inactive); with HCT-15, 18.2 µM.
Take `CC(C)=CC(=O)C1c2cccc(O)c2C(=O)c2c(O)cc(C)cc21` (stereo unspecified): the GI50 in the assay with NCI-H460 is 2.32 µM (inactive); in the assay with HOP-62, 2.86 µM (inactive); in the assay on EKVX, 12.6 µM (inactive); in the assay with RPMI-8226, 3.61 µM (inactive); in the assay with Malme-3M, 2.76 µM (inactive); with SK-MEL-5 it was 2.05 µM (inactive). Moreover, the GI50 with SF-539 was 1.56 µM (inactive); with CCRF-CEM, 2.55 µM (inactive); in the assay on SNB-75, 2.12 µM (inactive); in the assay with SK-OV-3, 2.81 µM (inactive); in the assay with HL-60 it was 3.24 µM (inactive); in the assay with OVCAR-5, 2.34 µM (inactive). Besides, the GI50 is 5.71 µM (inactive) in the assay with SN12C; 2.13 µM (inactive) in the assay with OVCAR-4; 2.09 µM (inactive) with IGROV-1; 3.24 µM in the assay on HCT-15; 1.73 µM (inactive) in the assay on U-251.
As to `O=c1oc2ccccc2c2c(=O)c3ccc(OC/C(=N/O)c4ccc(Cl)cc4)cc3oc12`, the GI50 in the assay on NCI/ADR-RES was 7.35 µM (inactive); in the assay with NCI-H460, 11.9 µM (inactive); in the assay with HOP-62, 15.1 µM (inactive); in the assay with RPMI-8226, 11.7 µM (inactive); with SK-MEL-5, 5.05 µM (inactive); with SF-539, 7.89 µM (inactive). For the same compound, the GI50 in the assay on CCRF-CEM was 28.3 µM (inactive); in the assay with SK-OV-3, 11.7 µM (inactive); in the assay on HL-60, 9.25 µM (inactive); in the assay with OVCAR-5 it was 17.3 µM (inactive); in the assay on SN12C, 19.9 µM (inactive); with MDA-MB-435, 2.47 µM (inactive). The values for the GI50 with IGROV-1, in the assay on HCT-15 and in the assay on U-251 were 31.5 µM (inactive), 7.4 µM and 9.51 µM (inactive), respectively.
In the case of `COc1cc([C@@H]2c3cc4c(cc3[C@@H](NC(=O)c3ccc(N)cc3)C3COC(=O)[C@@H]32)OCO4)cc(OC)c1O` (stereo partly specified), the GI50 with NCI-H460 was < 0.01 µM (active); in the assay on HOP-62 it was 0.535 µM (active); in the assay on EKVX, 3.62 µM (inactive); in the assay on RPMI-8226 it was 1.61 µM (inactive); in the assay with Malme-3M it was 2.51 µM (inactive); with SK-MEL-5, 2.81 µM (inactive). Also, the GI50 was 1.02 µM (active) in the assay with SF-539; 0.292 µM (active) with CCRF-CEM; 1.29 µM (inactive) in the assay with SNB-75; 2.14 µM (inactive) in the assay on SK-OV-3; 0.207 µM (active) in the assay on HL-60; 4.49 µM (inactive) with OVCAR-5. Moreover, the GI50 was 0.853 µM (active) with SN12C; 93.8 µM (inactive) in the assay on OVCAR-4; 1.42 µM (inactive) with IGROV-1; 12.6 µM in the assay with HCT-15; 0.362 µM (active) in the assay on U-251.
With `C=C(C)CC1=C(C(=S)NCCO[Si](C)(C)C(C)(C)C)C(OCC)(OCC)C1=O`, the GI50 is 36.1 µM (inactive) with NCI/ADR-RES; 17.9 µM (inactive) with HOP-62; 16.6 µM (inactive) in the assay on EKVX; 12.7 µM (inactive) in the assay on Malme-3M; 15.2 µM (inactive) in the assay with SK-MEL-5; 19.9 µM (inactive) in the assay on SF-539. Further, the GI50 in the assay with CCRF-CEM was > 100 µM (inactive); with SNB-75, 14.7 µM (inactive); in the assay with SK-OV-3, 18.2 µM (inactive); with HL-60, > 100 µM (inactive); in the assay with OVCAR-5, 14 µM (inactive); with SN12C it was 19.7 µM (inactive). Further, the GI50 was 12.9 µM (inactive) with OVCAR-4; 16.9 µM (inactive) in the assay on MDA-MB-435; 15.9 µM (inactive) in the assay with IGROV-1; 8.93 µM with HCT-15; 19.9 µM (inactive) in the assay on U-251.
`Nc1ncnc2c1nc(Cl)n2C1OC2COP(=O)(O)OC2C1O` (stereo unspecified): the GI50 was 8.39 µM (inactive) in the assay on NCI/ADR-RES; 4 µM (inactive) in the assay on NCI-H460; 22.4 µM (inactive) in the assay on EKVX; 5.53 µM (inactive) with RPMI-8226; 37 µM (inactive) with Malme-3M; > 47.4 µM (inactive) in the assay with SK-MEL-5. Also, the GI50 is 26.8 µM (inactive) with SF-539; 1.29 µM (inactive) in the assay on CCRF-CEM; 11.3 µM (inactive) in the assay with SNB-75; 3.01 µM (inactive) in the assay with SK-OV-3; 1.23 µM (inactive) in the assay on HL-60; 23.3 µM (inactive) with OVCAR-5. Moreover, the GI50 in the assay with SN12C was 12 µM (inactive); with OVCAR-4, 24.2 µM (inactive); with MDA-MB-435 it was 7.82 µM (inactive); in the assay on IGROV-1, 11 µM (inactive); in the assay on HCT-15, 3.76 µM; in the assay with U-251 it was 50.6 µM (inactive).
